{
  "source": "patent EP0059645A1",
  "about": "“Method and kit for identification of beta-lactamases” (NATIONAL RESEARCH DEVELOPMENT CORPORATION, priority 1981, dated 1982)",
  "key": {"OXA-3 [1]": {"molecular_target": "T1, OXA-3 (Pseudomonas aeruginosa, UniProt Q51429)", "assay": "6-well visual test with nitrocefin", "settings": "3 minutes, room temperature"}, "OXA-3 [2]": {"molecular_target": "T1, OXA-3", "assay": "Competitive assay with nitrocefin (RSAI)", "format": "biochemical, E. coli R57B", "design": "Normally, therefore, the beta-lactamase has to be extracted from the cells for the purpose of the present invention; endogenous in cells"}, "OXA-1": {"molecular_target": "OXA-1 (Escherichia coli, UniProt P13661)", "assay": "Competitive assay with nitrocefin (RSAI)", "format": "biochemical, E. coli 1527E", "design": "the beta-lactamase has to be extracted from the cells for the purpose of the present invention; made in house; host or cells: E. coli 1527E according to the earlier reading (crude cell extract)"}, "[3]": {"test_system": "\"unknown\" (unidentified) beta-lactamase", "assay": "Competitive assay with nitrocefin (RSAI) on an unidentified beta-lactamase", "settings": "extract by the method of Example 6, assay as in Example 1; * = showed irreversible inhibition"}, "TEM-1": {"molecular_target": "TEM-1 (Escherichia coli, UniProt P62593)", "assay": "6-well visual test with nitrocefin", "settings": "3 minutes, room temperature"}, "[4]": {"molecular_target": "T2, Chromosomal, induced beta-lactamase enzyme (Pseudomonas aeruginosa, UniProt P24735)", "T2 construct": "Normally, therefore, the beta-lactamase has to be extracted from the cells for the purpose of the present invention; endogenous in cells; host or cells: Pseudomonas aeruginosa 1937E grown with ampicillin", "assay": "Competitive assay with nitrocefin (RSAI)", "format": "biochemical, Ps.aerug. 1937E + ampicillin"}, "SHV-1": {"molecular_target": "SHV-1 (Escherichia coli, UniProt P0AD63)", "assay": "Competitive assay with nitrocefin (RSAI)", "format": "biochemical, E. coli 2008E", "design": "the beta-lactamase has to be extracted from the cells for the purpose of the present invention; made in house; host or cells: E. coli 2008E (crude cell extract)"}, "[5]": {"settings": "well A: Cefoxitin 20:1 to nitrocefin"}, "[6]": {"settings": "well E: Cefoxitin 200:1 to nitrocefin"}},
  "data": [
    {"smiles": "CO[C@@]1(NC(=O)Cc2cccs2)C(=O)N2C(C(=O)O)=C(COC(N)=O)CS[C@@H]21", "note": "[Cefoxi-tin, cefoxitin]", "values": [
      {"measurement": "Score in 6-well visual test", "setting": "OXA-3 [1]; [5]", "result": "-"},
      {"measurement": "Score in 6-well visual test", "setting": "OXA-3 [1]; [6]", "result": "-"},
      {"measurement": "RSAI", "setting": "OXA-3 [2]", "result": 0.004},
      {"measurement": "RSAI", "setting": "OXA-1", "result": 20},
      {"measurement": "RSAI", "setting": "[3]", "result": 0.008},
      {"measurement": "Score in 6-well visual test", "setting": "TEM-1; [5]", "result": "++"},
      {"measurement": "Score in 6-well visual test", "setting": "TEM-1; [6]", "result": "-"},
      {"measurement": "RSAI", "setting": "[4]", "result": 0.003},
      {"measurement": "RSAI", "setting": "SHV-1", "result": 600}
    ]}
  ]
}
